SMILES strings stand for the structures.

The subject of the first experiment is Jurkat cells. In words: Adaptation to G2 cell cycle arrest (G1 increment) in X-ray pre-arrested Jurkat cells, flow cytometry. The class given is cell-based, human. The following applies: Homo sapiens, Jurkat, 24 h, Table 1; concentration causing half-maximal increase of % cells in G1 phase (G1 increment); Jurkat pre-arrested by 10 Gy X-ray, 24 hours with compound. In a few lines:
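Jurkat cells were G2-arrested by 10 Gy X-ray irradiation and held 24 h in 10% FCS/RPMI1640 at 37 °C. They were then exposed to compounds for a further 24 h. Propidium iodide staining and flow cytometry gave the %G1 cells, and IC50 (μM) is the concentration giving a half-maximal G1 increment.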
`CC1=C(C)C(=O)N(Nc2ccc3ccccc3n2)C1=O` [Compound S00362]: the IC50 amounted to 5000 nM.
The same measure, in the same setting: then `CC1=C(C)C(=O)N(Nc2cc(Cl)ccc2C)C1=O` [Compound S00319], with 10000 nM; and `O=C1C(Cl)=C(Cl)C(=O)N1Nc1cccc(C(F)(F)F)c1` [Compound S00406], with 80000 nM; and `CC1=C(C)C(=O)N(Cc2ccc(C(F)(F)F)c(Cl)c2)C1=O` [Compound S00513], with 5000 nM.
As to `CC1=C(C)C(=O)N(Nc2ccc3ccccc3c2)C1=O` [Compound S00651], the IC50 came out at 10000 nM.
The same measure, in the same setting: with `CC1=C(C)C(=O)N(n2ccc3cc(C)ccc32)C1=O` [Compound S00663] the figure was 40000 nM; with `CC1=C(C)C(=O)N(Nc2nc3ccc(F)cc3s2)C1=O` [Compound S00454], 4000 nM.
Regarding `CC1=C(C)C(=O)N(Nc2cc(C(F)(F)F)ccc2Br)C1=O` [Compound S00623], the IC50 amounted to 10000 nM.
Still for that read-out and setting: with `CC1=C(C)C(=O)N(Cc2ccc(Cl)c(C(F)(F)F)c2)C1=O` [Compound S00201] the figure was 10000 nM; with `CC1=C(C)C(=O)N(Nc2ccc(Cl)c3ccccc23)C1=O` [Compound S00738, 1-[(4-chloronaphthyl)amino]-3,4-dimethylazoline-2,5-dione], 630 nM; with `CC1=C(C)C(=O)N(Nc2nc3c(Cl)cccc3s2)C1=O` [Compound S00756], 1250 nM.
The same measure, in the same setting: with `CC1=C(C)C(=O)N(Nc2ccc3cccc(Cl)c3n2)C1=O` [Compound S00585, 1-[(8-chloro(2-quinolyl))amino]-3,4-dimethylazoline-2,5-dione] the figure was 450 nM; with `CC1=C(C)C(=O)N(Nc2cccc(C(C)(C)C)c2)C1=O` [Compound S00627], 2000 nM.
Still for that read-out and setting: then `CC1=C(C)C(=O)N(C(C)c2ccc(Br)cc2)C1=O` (stereo not shown) [Compound S00543], with 60000 nM.
Take `CC1=C(C)C(=O)N(Nc2ccc(Cl)c(C(F)(F)F)c2)C1=O` [Compound S00405]: the IC50 is 2500 nM.
On the same count and under the same terms, then `CC1=C(C)C(=O)N(Nc2ccc3c(c2)C(C)(C)CCC3(C)C)C1=O` [Compound S00698], with 5000 nM.

The same experiment, now with this note: Homo sapiens, Jurkat, 24 h, Table 2; concentration causing half-maximal increase of % cells in G1 phase (G1 increment); Jurkat pre-arrested by 10 Gy X-ray, 24 hours with compound.
In the case of `CC1=C(C)C(=O)N(Nc2ccc(C(F)(F)F)c(CC(C)C)n2)C1=O` [Compound S01457, 3,4-dimethyl-1-{[6-(2-methylpropyl)-5-(trifluoromethyl)(2-pyridyl)]amino}azoline-2,5-dione], the IC50 came out at 300 nM.
The same measure, in the same setting: with `CC1=C(C)C(=O)N(Nc2cc(Cl)c3ccc(Br)cc3n2)C1=O` [Compound S01311, 1-[(7-bromo-4-chloro(2-quinolyl))amino]-3,4-dimethylazoline-2,5-dione] the figure was 300 nM; with `CC1=C(C)C(=O)N(Nc2cc(CN3CCN(C(=O)c4ccc(F)cc4)CC3)c3ccc(Br)cc3n2)C1=O` [Compound S01877, 1-{[7-bromo-4-({4-[(4-fluorophenyl)carbonyl]piperazinyl}methyl) (2-quinolyl)]amino}-3,4-dimethylazoline-2,5-dione], 468 nM.
On the same count and under the same terms, with `CC1=C(C)C(=O)N(Nc2cc(Cl)c3cccc(C)c3n2)C1=O` [Compound S00871, 1-[(4-chloro-8-methyl(2-quinolyl))amino]-3,4-dimethylazoline-2,5-dione] the figure was 625 nM; with `CC1=C(C)C(=O)N(Nc2cc(CO)c3ccc(Br)cc3n2)C1=O` [Compound S01037, 1-{[7-bromo-4-(hydroxymethyl)(2-quinolyl)]amino}-3,4-dimethylazoline-2,5-dione], 625 nM; with `CC1=C(C)C(=O)N(Nc2cc(CN3CCN(C(=O)c4ccccc4Cl)CC3)c3ccc(Br)cc3n2)C1=O` [Compound S01878, 1-{[7-bromo-4-({4-[(2-chlorophenyl)carbonyl]piperazinyl}methyl) (2-quinolyl)]amino}-3,4-dimethylazoline-2,5-dione], 234 nM.
Regarding `COC(=O)CCC1=C(C)C(=O)N(Nc2cc(CN3CCN(C(=O)OC(C)(C)C)CC3)c3ccc(Br)cc3n2)C1=O` [Compound S01865, Methyl 3-(1-{[4-({4-[(tert-butyl)oxycarbonyl]piperazinyl}methyl)-7-bromo (2-quinolyl)]amino}-4-methyl-2,5-dioxoazolin-3-yl)propanoate], the IC50 was determined as 312 nM.
Still for that read-out and setting: then `CC1=C(C)C(=O)N(Nc2ccc(C(F)(F)F)c(Br)n2)C1=O` [Compound S00994, 1-{[6-bromo-5-(trifluoromethyl)(2-pyridyl)]amino}-3,4-dimethylazoline-2,5-dione], with 200 nM; and `CC1=C(C)C(=O)N(Nc2ccc(C(F)(F)F)c(-c3cccc(Cl)c3)n2)C1=O` [Compound S01474, 1-{[6-(3-chlorophenyl)-5-(trifluoromethyl)(2-pyridyl)]amino}-3,4-dimethylazoline-2,5-dione], with 625 nM.
Still for that read-out and setting: then `CC1=C(C)C(=O)N(Nc2ccc(C(F)(F)F)c(Cc3ccccc3)n2)C1=O` [Compound S01762, 3,4-dimethyl-1-{[6-benzyl-5-(trifluoromethyl)(2-pyridyl)]amino}azoline-2,5-dione], with 625 nM.
On the same count and under the same terms, with `CC1=C(C)C(=O)N(Nc2cc(CNC3CCN(C(=O)OC(C)(C)C)CC3)c3ccc(Br)cc3n2)C1=O` [Compound S01862, tert-butyl 4-[({2-[(3,4-dimethyl-2,5-dioxoazolinyl)amino]-7-bromo-4-quinolyl}methyl)amino]piperidinecarboxylate] the figure was 937 nM; with `CC1=C(C)C(=O)N(Nc2ccc(Cl)c3ccccc23)C1=O` [Compound S00738, 1-[(4-chloronaphthyl)amino]-3,4-dimethylazoline-2,5-dione], 625 nM.
With `CC1=C(C)C(=O)N(Nc2cc(CN3CCN(C(=O)c4ccc(C)cc4C)CC3)c3ccc(Br)cc3n2)C1=O` [Compound S01800, 1-{[4-({4-[(2,4-dimethylphenyl)carbonyl]piperazinyl}methyl)-7-bromo (2-quinolyl)]amino}-3,4-dimethylazoline-2,5-dione], the IC50 turned out to be 625 nM.
Still for that read-out and setting: then `CC1=C(C)C(=O)N(Nc2cc(Cl)c(Cl)c(Cl)c2)C1=O` [Compound S00832, 3,4-dimethyl-1-[(3,4,5-trichlorophenyl)amino]azoline-2,5-dione], with 300 nM.
Still for that read-out and setting: with `CC1=C(C)C(=O)N(Nc2cc(CN3CCN(C(=O)OCc4ccccc4)CC3)c3ccc(Br)cc3n2)C1=O` [Compound S01683, Phenylmethyl4-({2-[(3,4-dimethyl-2,5-dioxoazolinyl)amino]-7-bromo-4-quinolyl}methyl)piperazinecarboxylate] the figure was 625 nM; with `CC(=O)OCc1cc(NN2C(=O)C(C)=C(C)C2=O)nc2cc(Br)ccc12` [Compound S01047, {2-[(3,4-dimethyl-2,5-dioxoazolinyl)amino]-7-bromo-4-quinolyl}methylacetate], 625 nM.
The same measure, in the same setting: with `CC1=C(C)C(=O)N(Nc2cccc(-c3cccc(C(F)(F)F)c3)n2)C1=O` [Compound S01691, 3,4-dimethyl-1-({6-[3-(trifluoromethyl)phenyl](2-pyridyl)}amino)azoline-2,5-dione] the figure was 625 nM.
Regarding `CC1=C(C)C(=O)N(Nc2ccc3cccc(Cl)c3n2)C1=O` [Compound S00585, 1-[(8-chloro(2-quinolyl))amino]-3,4-dimethylazoline-2,5-dione], the IC50 came out at 300 nM.
Same read-out and setting: with `CC1=C(CO)C(=O)N(Nc2ccc(C(F)(F)F)c(Cl)n2)C1=O` [Compound S01470, 1-{[6-chloro-5-(trifluoromethyl)(2-pyridyl)]amino}-3-(hydroxymethyl)-4-methylazoline-2,5-dione] the figure was 200 nM.
Same read-out and setting: then `CC1=C(C)C(=O)N(Nc2nc(Cl)cc3ccccc23)C1=O` [Compound S01098, 1-[(3-chloroisoquinolyl)amino]-3,4-dimethylazoline-2,5-dione], with 450 nM.
Still for that read-out and setting: then `CNC(=O)CCC1=C(C)C(=O)N(Nc2ccc(C(F)(F)F)c(Cl)n2)C1=O` [Compound S01883, 3-(1-{[6-chloro-5-(trifluoromethyl)(2-pyridyl)]amino}-4-methyl-2,5-dioxoazolin-3-yl)-N-methylpropanamide], with 234 nM.
For `CC1=C(C)C(=O)N(Nc2ccc(C(F)(F)F)c(-c3ccc(F)c(Cl)c3)n2)C1=O` [Compound S01313, 1-{[6-(3-chloro-4-fluorophenyl)-5-(trifluoromethyl)(2-pyridyl)]amino}-3,4-dimethylazoline-2,5-dione], the IC50 was determined as 300 nM.

Staying with this experiment, now noted: Homo sapiens, Jurkat, 24 h, Table 3; concentration causing half-maximal increase of % cells in G1 phase (G1 increment); Jurkat pre-arrested by 10 Gy X-ray, 24 hours with compound.
Take `CC1=C(COC(C)(C)C)C(=O)N(Nc2ccc(C(F)(F)F)c(Cl)n2)C1=O` [Compound S03873, 4-[(tert-butoxy)methyl]-1-{[6-chloro-5-(trifluoromethyl)(2-pyridyl)]amino}-3-methylazoline-2,5-dione]: the IC50 came out at 20 nM.
The same measure, in the same setting: with `CC1=C(COCC(C)C)C(=O)N(Nc2ccc(C(F)(F)F)c(Cl)n2)C1=O` [Compound S03963, 1-{[6-chloro-5-(trifluoromethyl)(2-pyridyl)]amino}-4-methyl-3-[(2-methylpropoxy)methyl]azoline-2,5-dione] the figure was under 19 nM.
`COCCOCC1=C(C)C(=O)N(Nc2ccc(C(F)(F)F)c(Cl)n2)C1=O` [Compound S03742, 1-{[6-chloro-5-(trifluoromethyl)(2-pyridyl)]amino}-3-[(2-methoxyethoxy)methyl]-4-methylazoline-2,5-dione]: the IC50 was determined as 120 nM.
Consider `CC1=C(COCC(C)(C)C)C(=O)N(Nc2ccc(C(F)(F)F)c(Cl)n2)C1=O` [Compound S03962, 3-[(2,2-dimethylpropoxy)methyl]-1-{[6-chloro-5-(trifluoromethyl) (2-pyridyl)]amino}-4-methylazoline-2,5-dione], for which the IC50 was under 19 nM.

The experiment is the same for the next values; noted with them: Table 2; concentration causing half-maximal increase of % cells in G1 phase (G1 increment); Jurkat pre-arrested by 10 Gy X-ray, 24 hours with compound.
With `CC1=C(C)C(=O)N(Nc2cc(CN3CCN(C(=O)OC(C)(C)C)CC3)c3ccc(Br)cc3n2)C1=O` [Compound S01589, tert-butyl 4-({2-[(3,4-dimethyl-2,5-dioxoazolinyl)amino]-7-bromo-4-quinolyl}methyl)piperazinecarboxylate], the IC50 was found to be 78 nM.

The values above are taken from patent US8415357B2 (Canbas Co., Ltd., priority 2007, dated 2013).
